Reference: US6503881B2 (priority 1996, dated 2003)
Read-outs that look alike come from different tables or passages of the source.

Test system: bacteria
[1] = A. calcoaceticus AC002, agarose dilution
[2] = E. cloacae ECL007, agarose dilution
[3] = E. coli ECO005, agarose dilution
[4] = E. faecalis EFS001, agarose dilution
[5] = E. faecalis EFS008, agarose dilution
[6] = K. pneumoniae KP001, agarose dilution
[7] = P. aeruginosa PA004, agarose dilution
[8] = S. aureus SA014, agarose dilution
[9] = S. aureus SA093, agarose dilution
[10] = S. epidermidis SE010, agarose dilution
[11] = S. maltophilia SMA002, agarose dilution
[12] = S. marcescens SMS003, agarose dilution

Substance: P W W P W R R K [MBI 11D3CN]
- MIC (A. calcoaceticus AC001): >128 µg/mL
- MIC (E. cloacae ECL007): >128 µg/mL
- MIC (E. coli ECO002): 64 µg/mL
- MIC (E. faecalis EFS002): 32 µg/mL
- MIC (E. faecium EFM003): 8 µg/mL
- MIC (K. pneumoniae KP002): >128 µg/mL
- MIC (P. aeruginosa PA024): >128 µg/mL
- MIC (S. aureus SA009): 8 µg/mL
- MIC (S. maltophilia SMA001): 64 µg/mL
- MIC (S. marcescens SMS004): >128 µg/mL

Substance: W R W W K P K W R W P K W [MBI 11J02CN]
- MIC [1]: 4 µg/mL
- MIC [2]: 64 µg/mL
- MIC [3]: 4 µg/mL
- MIC [4]: 4 µg/mL
- MIC [5]: 16 µg/mL
- MIC [6]: 4 µg/mL
- MIC [7]: 32 µg/mL
- MIC [8]: 2 µg/mL
- MIC [9]: 1 µg/mL
- MIC [10]: 2 µg/mL
- MIC [11]: 8 µg/mL
- MIC [12]: >128 µg/mL

Substance: W W K K W P W W P W R R K [MBI 11C5CN]
- MIC (A. calcoaceticus AC001): 32 µg/mL
- MIC (E. cloacae ECL007): >128 µg/mL
- MIC (E. coli ECO001): 8 µg/mL
- MIC (E. faecalis EFS002): 16 µg/mL
- MIC (E. faecium EFM003): 2 µg/mL
- MIC (K. pneumoniae KP002): 16 µg/mL
- MIC (P. aeruginosa PA003): 64 µg/mL
- MIC (S. aureus SA009): 2 µg/mL
- MIC (S. epidermidis SE002): 2 µg/mL
- MIC (S. maltophilia SMA002): 16 µg/mL
- MIC (S. marcescens SMS004): >28 µg/mL

Substance: W W P W R R K [MBI 11D9M8]
- MIC [1]: 128 µg/mL
- MIC [2]: >128 µg/mL
- MIC [3]: >128 µg/mL
- MIC [4]: 8 µg/mL
- MIC (E. faecalis EFS002): 128 µg/mL
- MIC [5]: 128 µg/mL
- MIC (E. faecium EFM002): 32 µg/mL
- MIC [6]: >128 µg/mL
- MIC [7]: >128 µg/mL
- MIC (S. aureus SA007): 32 µg/mL
- MIC [8]: 128 µg/mL
- MIC (S. aureus SA016): 128 µg/mL
- MIC [9]: 8 µg/mL
- MIC [10]: 128 µg/mL
- MIC [11]: >128 µg/mL
- MIC [12]: >128 µg/mL

Substance: W W R W P W W P W R R K [MBI 11A10CN]
- MIC [1]: 4 µg/mL
- MIC [2]: 64 µg/mL
- MIC [3]: 16 µg/mL
- MIC [4]: 4 µg/mL
- MIC [5]: 16 µg/mL
- MIC [6]: 16 µg/mL
- MIC [7]: 64 µg/mL
- MIC [8]: 4 µg/mL
- MIC [9]: 2 µg/mL
- MIC [10]: 4 µg/mL
- MIC [11]: 32 µg/mL
- MIC [12]: >128 µg/mL

Substance: i L K K W P W W P W R R k [MBI 11E3CN]
- MIC (A. calcoaceticus AC001): 16 µg/mL
- MIC (E. cloacae ECL007): >128 µg/mL
- MIC (E. coli ECO001): 4 µg/mL
- MIC (E. faecalis EFS004): 8 µg/mL
- MIC (E. faecium EFM003): 2 µg/mL
- MIC (H. influenzae HIN002): >128 µg/mL
- MIC (K. pneumoniae KP002): 32 µg/mL
- MIC (P. aeruginosa PA041): 64 µg/mL
- MIC (P. mirabilis PM001): >128 µg/mL
- MIC (S. aureus SA010): 2 µg/mL
- MIC (S. epidermidis SE002): 1 µg/mL
- MIC (S. maltophilia SMA001): 32 µg/mL
- MIC (S. marcescens SMS004): >128 µg/mL
- MIC (S. pneumoniae SBSPN2): >128 µg/mL
- MIC (S. pneumoniae SPN044): >128 µg/mL
- MIC (S. pyogenes SPY002): 16 µg/mL
